Results published in article PMC3772719 (Bioorganic & medicinal chemistry letters, 2013).
Entries after “also recorded” stand apart in the source; their conditions may differ.

Tests used:
[1] = test system: PPC-1 prostate cancer cells; conditions: for synergy with TRAIL to reduce the number of viable cells: compound 5 μM, Figure 4; for synergy with TRAIL to reduce the number of viable cells / LD50 values for TRAIL in the presence of the compound: PPC-1 cells; for LD50 values for TRAIL in the presence of the compound: compound 5 μM for 4 h, then TRAIL 20 h
MDA-MB-231 cells = test: Synergy with TNF to induce cell death in MDA-MB-231 cells; format: cell-based; conditions: compound 5 μM, various concentrations of TNF, Figure S2
[2] = test system: human foreskin fibroblasts (HFF); format: cell-based; conditions: compound 5 μM alone or in the presence of TRAIL (100 ng/mL), Figure 5
Cellular assay = format: cell-based; conditions: Figure S1

**Q.** Which “synergy with TRAIL to reduce the number of viable cells” value [1] does the source give for `CN[C@@H](C)C(=O)N[C@H](C(=O)N1CCC[C@H]1C(=O)NNc1ccccc1)C(C)C` [Compound 2a] here?
**A.** Its value is “act synergistically with TRAIL”.

**Q.** Which results are given for `CN[C@@H](C)C(=O)N[C@H](C(=O)N1CCC[C@H]1C(=O)Nc1cccc2ccccc12)C(C)C` [Compound 2b]?
**A.** synergy with TNF to induce cell death (MDA-MB-231 cells): acts synergistically; LD50 values for TRAIL in the presence of the compound [1]: 0.073 to 0.089 nM; synergy with TRAIL to reduce the number of viable cells [1]: act synergistically with TRAIL; toxicity in normal cells [2]: No toxicity was observed

**Q.** Which “LD50 values for TRAIL in the presence of the compound” value [1] does the source give for `CN[C@@H](C)C(=O)N[C@H](C(=O)N1CCC[C@H]1C(=O)N[C@@H]1CCCc2ccccc21)C(C)C` [Compound 2c] here?
**A.** Its value is 0.073 to 0.089 nM.

**Q.** What about the “synergy with TRAIL to reduce the number of viable cells” value [1] of the same molecule?
**A.** Its value is “act synergistically with TRAIL”.

**Q.** For `CN[C@@H](C)C(=O)N[C@H](C(=O)N[C@@H](C)C(=O)Nc1cccc2ccccc12)C(C)C` [Compound 8q], which “LD50 values for TRAIL in the presence of the compound” value [1] is on record?
**A.** The value was 0.073 to 0.089 nM.

**Q.** What about the “synergy with TRAIL to reduce the number of viable cells” value [1] of the same molecule?
**A.** Its value is “sensitized TRAIL-resistant prostate cancer cells to apoptotic cell death; also recorded: act synergistically with TRAIL”.

**Q.** And the “toxicity as a single agent” value ([1]; single agent, Figures 4, 5 and S1)?
**A.** The value was “no toxicity”.

**Q.** And the “toxicity in normal cells” value [2]?
**A.** The value was “No toxicity was observed”.

**Q.** With `CC(C)[C@H](NC(=O)[C@H](C)N)C(=O)N[C@@H](C)C(=O)Nc1cccc2ccccc12` [Compound 8t] as the molecule, how does the “activity in a cellular assay” value (Cellular assay) read?
**A.** Its value is “did not show any activity”.
